Measured values taken from patent publication US10065963B2 (Incyte Corporation, priority 2015, dated 2018).
pIC50: −log10 of the molar value. Structures can show the parent of a compound that is named as a salt. Where two headings read alike, the source gives them in different places.

Columns and labels:
[1] = system: Phosphorylated Ribosomal Protein S6 (RPS6) in THP-1 cells; assay: THP-1 RPS6 ELISA assay; format: cell-based, human; conditions: 10 nM MCP-1, read-out: PI3Kγ_THP1_RPS6_ELISA IC50
[2] = target: PI3Kγ (p110γ) Recombinant Human Protein (Homo sapiens (Human), UniProt P48736); assay: PI3K-γ scintillation proximity assay; format: biochemical; conditions: 2 μM ATP, 20 μM PIP2
Chain of PI3Kγ (p110γ) Recombinant Human Protein (P48736 whole entry): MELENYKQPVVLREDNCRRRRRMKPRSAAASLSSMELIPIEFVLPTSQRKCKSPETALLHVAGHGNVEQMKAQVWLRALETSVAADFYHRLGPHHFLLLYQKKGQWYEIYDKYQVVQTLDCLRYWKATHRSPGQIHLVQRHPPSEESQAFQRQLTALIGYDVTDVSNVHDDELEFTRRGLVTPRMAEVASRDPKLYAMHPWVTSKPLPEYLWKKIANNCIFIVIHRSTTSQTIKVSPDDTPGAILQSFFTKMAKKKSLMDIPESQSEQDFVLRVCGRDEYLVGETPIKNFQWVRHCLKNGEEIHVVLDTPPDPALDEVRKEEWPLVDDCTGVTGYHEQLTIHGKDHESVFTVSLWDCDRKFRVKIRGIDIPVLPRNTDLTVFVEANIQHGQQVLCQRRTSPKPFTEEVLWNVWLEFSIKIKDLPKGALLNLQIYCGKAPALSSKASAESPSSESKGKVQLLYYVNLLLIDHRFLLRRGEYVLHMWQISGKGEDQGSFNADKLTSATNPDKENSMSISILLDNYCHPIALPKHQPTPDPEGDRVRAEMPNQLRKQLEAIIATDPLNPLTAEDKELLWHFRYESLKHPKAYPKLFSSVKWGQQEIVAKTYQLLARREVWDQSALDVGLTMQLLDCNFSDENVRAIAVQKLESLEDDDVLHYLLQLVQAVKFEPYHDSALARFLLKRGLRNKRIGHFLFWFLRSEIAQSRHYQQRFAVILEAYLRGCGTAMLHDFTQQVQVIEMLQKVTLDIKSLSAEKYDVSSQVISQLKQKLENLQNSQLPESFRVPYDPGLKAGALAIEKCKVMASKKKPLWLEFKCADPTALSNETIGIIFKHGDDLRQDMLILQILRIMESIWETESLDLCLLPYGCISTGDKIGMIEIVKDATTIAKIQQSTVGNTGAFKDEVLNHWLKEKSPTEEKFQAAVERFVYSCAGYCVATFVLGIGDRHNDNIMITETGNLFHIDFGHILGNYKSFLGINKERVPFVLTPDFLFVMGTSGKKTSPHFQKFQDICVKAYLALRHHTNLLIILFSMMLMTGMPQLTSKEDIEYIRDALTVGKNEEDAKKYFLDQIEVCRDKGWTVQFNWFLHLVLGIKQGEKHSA

[3] = target: PI3Kδ (p110δ/p85α) Recombinant Human Protein (Homo sapiens (Human), UniProt O00329); assay: PI3Kδ scintillation proximity assay; format: biochemical; conditions: 2 μM ATP, 20 μM PIP2
Chain of PI3Kδ (p110δ/p85α) Recombinant Human Protein (O00329 whole entry): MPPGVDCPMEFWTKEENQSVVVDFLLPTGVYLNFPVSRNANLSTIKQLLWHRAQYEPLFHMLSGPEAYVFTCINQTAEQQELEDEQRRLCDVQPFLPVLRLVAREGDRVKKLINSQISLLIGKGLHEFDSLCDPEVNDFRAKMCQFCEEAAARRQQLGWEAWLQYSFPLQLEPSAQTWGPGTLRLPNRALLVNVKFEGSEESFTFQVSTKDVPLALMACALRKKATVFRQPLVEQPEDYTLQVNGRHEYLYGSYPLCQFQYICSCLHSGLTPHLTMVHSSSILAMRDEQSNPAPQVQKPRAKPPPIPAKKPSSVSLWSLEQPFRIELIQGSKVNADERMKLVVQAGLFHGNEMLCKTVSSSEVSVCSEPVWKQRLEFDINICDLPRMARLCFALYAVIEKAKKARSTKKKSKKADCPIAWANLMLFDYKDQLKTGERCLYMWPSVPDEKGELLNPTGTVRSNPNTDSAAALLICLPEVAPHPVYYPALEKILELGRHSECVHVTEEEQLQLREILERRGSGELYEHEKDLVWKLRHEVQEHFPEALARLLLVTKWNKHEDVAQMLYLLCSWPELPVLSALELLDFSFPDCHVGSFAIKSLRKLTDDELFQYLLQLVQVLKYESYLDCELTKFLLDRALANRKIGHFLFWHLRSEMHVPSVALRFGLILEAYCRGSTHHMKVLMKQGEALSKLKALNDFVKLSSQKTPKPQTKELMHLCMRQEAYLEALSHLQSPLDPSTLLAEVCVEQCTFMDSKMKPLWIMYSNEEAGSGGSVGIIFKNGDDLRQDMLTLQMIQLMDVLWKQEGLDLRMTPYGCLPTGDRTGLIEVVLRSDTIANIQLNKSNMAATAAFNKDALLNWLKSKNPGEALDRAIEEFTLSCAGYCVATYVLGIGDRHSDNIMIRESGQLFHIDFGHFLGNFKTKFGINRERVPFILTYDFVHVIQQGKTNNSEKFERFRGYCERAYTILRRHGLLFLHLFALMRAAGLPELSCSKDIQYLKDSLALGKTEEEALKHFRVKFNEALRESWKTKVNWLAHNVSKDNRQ
Chain of PI3Kδ (p110δ/p85α) Recombinant Human Protein (P27986 whole entry partner): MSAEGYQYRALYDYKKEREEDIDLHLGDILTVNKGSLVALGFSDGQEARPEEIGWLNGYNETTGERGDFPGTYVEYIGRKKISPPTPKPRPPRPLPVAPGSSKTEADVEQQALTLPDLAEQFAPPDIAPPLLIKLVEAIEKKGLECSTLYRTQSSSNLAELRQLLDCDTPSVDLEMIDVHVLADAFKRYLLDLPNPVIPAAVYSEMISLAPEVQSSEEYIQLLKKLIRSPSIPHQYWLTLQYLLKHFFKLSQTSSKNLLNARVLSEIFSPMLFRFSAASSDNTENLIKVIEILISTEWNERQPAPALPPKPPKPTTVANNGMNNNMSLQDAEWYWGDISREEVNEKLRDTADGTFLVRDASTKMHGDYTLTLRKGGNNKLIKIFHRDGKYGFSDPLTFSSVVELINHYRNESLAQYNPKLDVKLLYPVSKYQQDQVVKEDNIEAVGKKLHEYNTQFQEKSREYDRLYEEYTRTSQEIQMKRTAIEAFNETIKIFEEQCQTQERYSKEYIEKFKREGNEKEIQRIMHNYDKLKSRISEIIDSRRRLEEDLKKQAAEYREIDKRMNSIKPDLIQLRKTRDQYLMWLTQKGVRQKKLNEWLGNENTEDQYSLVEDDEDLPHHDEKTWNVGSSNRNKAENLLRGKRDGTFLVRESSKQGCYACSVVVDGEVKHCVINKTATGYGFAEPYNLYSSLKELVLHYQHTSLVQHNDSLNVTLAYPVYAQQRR

[4] = Homo sapiens, THP-1, THP-1 cells

Row | pIC50 [1, 4] | pIC50 [2] | pIC50 [3] | pIC50 ([1]; THP-1 cells) | SMILES
1 | > 6.30 | > 7.00 | > 7.00 |  | CC(NC(=O)c1c(N)nn2cccnc12)c1cc(Cl)c2cncn2c1N1CCC(C)(C)C1 (stereo not drawn) [Example 74, 2-Amino-N-{1-[8-chloro-5-(3,3-dimethylpyrrolidin-1-yl)imidazo[1,5-a]pyridin-6-yl]ethyl}pyrazolo[1,5-a]pyrimidine-3-carboxamide bistrifluoroacetate]
2 | > 6.30 | > 7.00 | > 6.30 |  | CC(NC(=O)c1c(N)nn2cccnc12)c1cc(Cl)c2cncn2c1N1CC[C@@H](F)C1 (stereo partly drawn) [Example 75A, 2-Amino-N-(1-{8-chloro-5-[(3R)-3-fluoropyrrolidin-1-yl]imidazo[1,5-a]pyridin-6-yl}ethyl)pyrazolo[1,5-a]pyrimidine-3-carboxamide bistrifluoroacetate]
3 | > 6.30 | > 7.00 | > 7.00 |  | CC(NC(=O)c1c(N)nn2cccnc12)c1cc(Cl)c2cncn2c1N1CC[C@H](F)C1 (stereo partly drawn) [Example 75B, 2-Amino-N-(1-{8-chloro-5-[(3S)-3-fluoropyrrolidin-1-yl]imidazo[1,5-a]pyridin-6-yl}ethyl)pyrazolo[1,5-a]pyrimidine-3-carboxamide bistrifluoroacetate]
4 | < 6.00 | > 7.00 | > 6.30 |  | CC(NC(=O)c1c(N)nn2cccnc12)c1cc(Cl)c2cncn2c1N1CCC2(CC1)COC(=O)N2 (stereo not drawn) [Example 79, 2-Amino-N-{1-[8-chloro-5-(2-oxo-3-oxa-1,8-diazaspiro[4.5]dec-8-yl)imidazo[1,5-a]pyridin-6-yl]ethyl}pyrazolo[1,5-a]pyrimidine-3-carboxamide trifluoroacetate]
5 | > 6.30 | > 7.00 | > 6.30 |  | CC(NC(=O)c1c(N)nn2cccnc12)c1cc(Cl)c2cncn2c1N1CCC2(CC1)CNC(=O)O2 (stereo not drawn) [Example 80, 2-Amino-N-{1-[8-chloro-5-(2-oxo-1-oxa-3,8-diazaspiro[4.5]dec-8-yl)imidazo[1,5-a]pyridin-6-yl]ethyl}pyrazolo[1,5-a]pyrimidine-3-carboxamide trifluoroacetate]
6 | > 6.30 | > 7.00 | > 6.30 |  | CC(NC(=O)c1c(N)nn2cccnc12)c1cc(Cl)c2cncn2c1N1CCC(C)(O)CC1 (stereo not drawn) [Example 87, 2-Amino-N-(1-(8-chloro-5-(4-hydroxy-4-methylpiperidin-1-yl)imidazo[1,5-a]pyridin-6-yl)ethyl)pyrazolo[1,5-a]pyrimidine-3-carboxamide trifluoroacetate]
7 | > 6.30 | > 7.00 | > 7.00 |  | CC(NC(=O)c1c(N)nn2cccnc12)c1cc(Cl)c2cncn2c1N1CCC(C)(C#N)CC1 (stereo not drawn) [Example 88, 2-Amino-N-(1-(8-chloro-5-(4-cyano-4-methylpiperidin-1-yl)imidazo[1,5-a]pyridin-6-yl)ethyl)pyrazolo[1,5-a]pyrimidine-3-carboxamide trifluoroacetate]
8 |  | > 7.00 | > 6.30 | > 6.30 | CC(NC(=O)c1c(N)nn2cccnc12)c1cc(Cl)c2cncn2c1N1CCC(O)(C(F)(F)F)CC1 (stereo not drawn) [Example 89, 2-Amino-N-(1-(8-chloro-5-(4-hydroxy-4-(trifluoromethyl)piperidin-1-yl)imidazo[1,5-a]pyridin-6-yl)ethyl)pyrazolo[1,5-a]pyrimidine-3-carboxamide trifluroacetate]

Continued, compound first:

Row | SMILES | pIC50 [1, 4] | pIC50 [2] | pIC50 [3] | pIC50 ([1]; THP-1 cells)
9 | COCCOc1c(C(C)NC(=O)c2c(N)nn3cccnc23)cc(Cl)c2cn[nH]c12 (stereo not drawn) [Example 81, 2-Amino-N-(1-(4-chloro-7-(2-methoxyethoxy)-1H-indazol-6-yl)ethyl)pyrazolo[1,5-a]pyrimidine-3-carboxamide trifluoroacetate] | > 6.30 | > 7.00 | > 7.00 | 
10 | COc1c(C(C)NC(=O)c2c(N)nn3cccnc23)cc(Cl)c2cn[nH]c12 (stereo not drawn) [Example 82, 2-Amino-N-(1-(4-chloro-7-methoxy-1H-indazol-6-yl)ethyl)pyrazolo[1,5-a]pyrimidine-3-carboxamide trifluoroacetate] | > 6.30 | > 7.00 | > 7.00 | 
11 | CC(NC(=O)c1c(N)nn2cccnc12)c1cc(Cl)c2cn[nH]c2c1OC(F)F (stereo not drawn) [Example 83, 2-Amino-N-(1-(4-chloro-7-(difluoromethoxy)-1H-indazol-6-yl)ethyl)pyrazolo[1,5-a]pyrimidine-3-carboxamide trifluoroacetate] | > 6.30 | > 7.00 | > 7.00 | 
12 | CC(NC(=O)c1c(N)nn2cccnc12)c1cc(Cl)c2cn[nH]c2c1OCCO (stereo not drawn) [Example 84, 2-Amino-N-(1-(4-chloro-7-(2-hydroxyethoxy)-1H-indazol-6-yl)ethyl)pyrazolo[1,5-a]pyrimidine-3-carboxamide trifluoroacetate] | > 6.30 | > 7.00 | > 7.00 | 
13 | CC(NC(=O)c1c(N)nn2cccnc12)c1cc(Cl)c2cn[nH]c2c1OCC(O)CO (stereo not drawn) [Example 85, 2-Amino-N-(1-(4-chloro-7-(2,3-dihydroxypropoxy)-1H-indazol-6-yl)ethyl)pyrazolo[1,5-a]pyrimidine-3-carboxamide trifluoroacetate] | > 6.30 | > 7.00 | > 7.00 | 
14 | CCOc1c(C(C)NC(=O)c2c(N)nn3cccnc23)cc(Cl)c2c(C#N)n[nH]c12 (stereo not drawn) [Example 86, 2-Amino-N-(1-(4-chloro-3-cyano-7-ethoxy-1H-indazol-6-yl)ethyl)pyrazolo[1,5-a]pyrimidine-3-carboxamide trifluoroacetate] | < 6.00 | > 7.00 | > 6.30 | 
15 | COC1CCN(c2c(C(C)NC(=O)c3c(N)nn4cccnc34)cc(Cl)c3cn[nH]c23)C1 (stereo not drawn) [Example 91, 2-Amino-N-{1-[4-chloro-7-(3-methoxypyrrolidin-1-yl)-2H-indazol-6-yl]ethyl}pyrazolo[1,5-a]pyrimidine-3-carboxamide bis(trifluoroacetate)] | > 6.00 | > 7.00 | > 7.00 | 
16 | CNS(=O)(=O)C1CCN(c2c(C(C)NC(=O)c3c(N)nn4cccnc34)cc(Cl)c3cn[nH]c23)C1 (stereo not drawn) [Example 92, 2-Amino-N-[1-(4-chloro-7-{3-[(methylamino)sulfonyl)pyrrolidin-1-yl}-2H-indazol-6-yl)ethyl]pyrazolo[1,5-a]pyrimidine-3-carboxamide] | > 6.30 | > 7.00 | > 6.30 | 
17 | CC(NC(=O)c1c(N)nn2cccnc12)c1cc(Cl)c2cn[nH]c2c1N1CCC(S(=O)(=O)N(C)C)CC1 (stereo not drawn) [Example 93, 2-Amino-N-[1-(4-chloro-7-{4-[(dimethylamino)sulfonyl]piperidin-1-yl}-2H-indazol-6-yl)ethyl]pyrazolo[1,5-a]pyrimidine-3-carboxamide] | < 6.00 | > 7.00 | > 5.70 | 
18 | CC(NC(=O)c1c(N)nn2cccnc12)c1cc(Cl)c2cn[nH]c2c1N1CCS(=O)(=O)CC1 (stereo not drawn) [Example 94, 2-Amino-N-{1-[4-chloro-7-(1,1-dioxidothiomorpholin-4-yl)-2H-indazol-6-yl]ethyl}pyrazolo[1,5-a]pyrimidine-3-carboxamide trifluoroacetate] | > 6.30 | > 7.00 | > 6.30 | 
19 | CC(=O)N[C@H]1CCN(c2c(C(C)NC(=O)c3c(N)nn4cccnc34)cc(Cl)c3cn[nH]c23)C1 (stereo partly drawn) [Example 95, N-(1-{7-[(3S)-3-(Acetylamino)pyrrolidin-1-yl]-4-chloro-2H-indazol-6-yl}ethyl)-2-aminopyrazolo[1,5-a]pyrimidine-3-carboxamide trifluoroacetate] | > 6.00 | > 7.00 | > 7.00 | 
20 | CC(NC(=O)c1c(N)nn2cccnc12)c1cc(Cl)c2cn[nH]c2c1N1CC[C@H](NS(C)(=O)=O)C1 (stereo partly drawn) [Example 96A, 2-Amino-N-[1-(4-chloro-7-{(3S)-3-[(methylsulfonyl)amino]pyrrolidin-1-yl}-2H-indazol-6-yl)ethyl]pyrazolo[1,5-a]pyrimidine-3-carboxamide trifluoroacetate] | > 6.00 | > 7.00 | > 7.00 | 
21 | CC(NC(=O)c1c(N)nn2cccnc12)c1cc(Cl)c2cn[nH]c2c1N1CC[C@@H](NS(C)(=O)=O)C1 (stereo partly drawn) [Example 96B, 2-Amino-N-[1-(4-chloro-7-{(3R)-3-[(methylsulfonyl)amino]pyrrolidin-1-yl}-2H-indazol-6-yl)ethyl]pyrazolo[1,5-a]pyrimidine-3-carboxamide trifluoroacetate] | < 6.00 | > 7.00 | > 7.00 | 
22 | CCOC(=O)C1CC=C(c2c(C(C)NC(=O)c3c(N)nn4cccnc34)cc(Cl)c3cn[nH]c23)CC1 (stereo not drawn) [Example 97, Ethyl 4-[6-(1-{[(2-aminopyrazolo[1,5-a]pyrimidin-3-yl)carbonyl]amino}ethyl)-4-chloro-2H-indazol-7-yl]cyclohex-3-ene-1-carboxylate bistrifluoroacetate] | > 6.00 | > 7.00 | > 6.30 | 
23 | COC1CC=C(c2c(C(C)NC(=O)c3c(N)nn4cccnc34)cc(Cl)c3cn[nH]c23)CC1 (stereo not drawn) [Example 100, 2-Amino-N-{1-[4-chloro-7-(4-methoxycyclohex-1-en-1-yl)-2H-indazol-6-yl]ethyl}pyrazolo[1,5-a]pyrimidine-3-carboxamide trifluoroacetate] | < 6.00 | > 7.00 | > 6.30 | 
24 | CC(NC(=O)c1c(N)nn2cccnc12)c1cc(Cl)c2cn[nH]c2c1C1=CCC(C#N)CC1 (stereo not drawn) [Example 101, 2-Amino-N-{1-[4-chloro-7-(4-cyanocyclohex-1-en-1-yl)-2H-indazol-6-yl]ethyl}pyrazolo[1,5-a]pyrimidine-3-carboxamide trifluoroacetate] | > 6.30 | > 7.00 | > 6.30 | 
